Measurements from the NIST ThermoML archive (doi:10.1016/j.tca.2014.07.022).
Numbers after ± are expanded uncertainties.

Tests used:
[1] = 100 kPa, Liquid; for viscosity: Concentric cylinders viscometry; for mass density: Vibrating tube method
[2] = xn = mol fraction of the nth substance listed; conditions: 100 kPa, Liquid; for viscosity: Concentric cylinders viscometry; for mass density: Vibrating tube method

CC(=O)CC(C)C [4-methylpentan-2-one]
[1]
Conditions | mass density [kg/m3] | viscosity [mPa·s]
293.15 K | 800.8 ± 0.3 | 0.588 ± 0.013
298.15 K | 796.1 ± 0.3 | 0.554 ± 0.013
303.15 K | 791.6 ± 0.3 | 0.523 ± 0.012
308.15 K | 786.9 ± 0.3 | 0.493 ± 0.011
313.15 K | 782.3 ± 0.3 | 0.463 ± 0.011
318.15 K | 777.6 ± 0.3 | 0.437 ± 0.01
323.15 K | 773 ± 0.3 | 0.41 ± 0.01

CC(C)O [propan-2-ol]
[1]
Conditions | mass density [kg/m3] | viscosity [mPa·s]
293.15 K | 785.4 ± 0.3 | 2.417 ± 0.051
298.15 K | 781.1 ± 0.3 | 2.083 ± 0.044
303.15 K | 776.8 ± 0.3 | 1.8 ± 0.038
308.15 K | 772.4 ± 0.3 | 1.561 ± 0.033
313.15 K | 768 ± 0.3 | 1.359 ± 0.029
318.15 K | 763.4 ± 0.3 | 1.189 ± 0.025
323.15 K | 758.8 ± 0.3 | 1.047 ± 0.023

CCCC(C)O (stereo not drawn) [pentan-2-ol]
[1]
Conditions | mass density [kg/m3] | viscosity [mPa·s]
293.15 K | 809.3 ± 0.3 | 3.974 ± 0.083
298.15 K | 805.3 ± 0.3 | 3.277 ± 0.069
303.15 K | 801.2 ± 0.3 | 2.717 ± 0.057
308.15 K | 797 ± 0.3 | 2.282 ± 0.048
313.15 K | 792.7 ± 0.3 | 1.931 ± 0.041
318.15 K | 788.4 ± 0.3 | 1.647 ± 0.035
323.15 K | 784 ± 0.3 | 1.419 ± 0.03

CCC(C)O (stereo not drawn) [butan-2-ol]
[1]
Conditions | mass density [kg/m3] | viscosity [mPa·s]
293.15 K | 806.7 ± 0.3 | 3.67 ± 0.077
298.15 K | 802.7 ± 0.3 | 3.04 ± 0.064
303.15 K | 798.4 ± 0.3 | 2.54 ± 0.053
308.15 K | 794.1 ± 0.3 | 2.128 ± 0.045
313.15 K | 789.8 ± 0.3 | 1.805 ± 0.038
318.15 K | 785.2 ± 0.3 | 1.538 ± 0.033
323.15 K | 780.6 ± 0.3 | 1.325 ± 0.028

CCC(C)O (stereo not drawn) [butan-2-ol] + CC(=O)CC(C)C
[2], x2 = 0
Conditions | mass density [kg/m3] | viscosity [mPa·s]
293.15 K | 806.7 ± 0.3 | 3.67 ± 0.077
298.15 K | 802.7 ± 0.3 | 3.04 ± 0.064
303.15 K | 798.4 ± 0.3 | 2.54 ± 0.053
308.15 K | 794.1 ± 0.3 | 2.128 ± 0.045
313.15 K | 789.8 ± 0.3 | 1.805 ± 0.038
318.15 K | 785.2 ± 0.3 | 1.538 ± 0.033
323.15 K | 780.6 ± 0.3 | 1.325 ± 0.028

CC(C)O [propan-2-ol] + CC(=O)CC(C)C
[2], x2 = 0
Conditions | mass density [kg/m3] | viscosity [mPa·s]
293.15 K | 785.4 ± 0.3 | 2.417 ± 0.051
298.15 K | 781.1 ± 0.3 | 2.083 ± 0.044
303.15 K | 776.8 ± 0.3 | 1.8 ± 0.038
308.15 K | 772.4 ± 0.3 | 1.561 ± 0.033
313.15 K | 768 ± 0.3 | 1.359 ± 0.029
318.15 K | 763.4 ± 0.3 | 1.189 ± 0.025
323.15 K | 758.8 ± 0.3 | 1.047 ± 0.023

CC(=O)CC(C)C [4-methylpentan-2-one] + CCCC(C)O
[2], x1 = 1
Conditions | mass density [kg/m3] | viscosity [mPa·s]
293.15 K | 800.8 ± 0.3 | 0.588 ± 0.013
298.15 K | 796.1 ± 0.3 | 0.554 ± 0.013
303.15 K | 791.6 ± 0.3 | 0.523 ± 0.012
308.15 K | 786.9 ± 0.3 | 0.493 ± 0.011
313.15 K | 782.3 ± 0.3 | 0.463 ± 0.011
318.15 K | 777.6 ± 0.3 | 0.437 ± 0.01
323.15 K | 773 ± 0.3 | 0.41 ± 0.01
